Source: paper PMC3565751, “The Feasibility of Enzyme Targeted Activation for Amino Acid/Dipeptide Monoester Prodrugs of Floxuridine; Cathepsin D as a Potential Targeted Enzym” (Molecules, 2012)

How the values were obtained:
Capan-2 cell homogenate = test: Prodrug hydrolysis in Capan-2 cell homogenate with the presence and the absence of selective enzyme inhibitors; format: in vitro ADME; conditions: 37 °C
Description: Hydrolysis StudiesPreparation of Capan-2 cell homogenates. Preparation of cell homogenates has been reported previously. Confluent Capan-2 cells (2 plates; 150 mm × 25 mm plate) were rinsed with saline twice. The cells were washed off with 5 mL of pH 7.4 phosphate buffer (10 mmol/L) and the lysed cells by ultrasonication (Micro ultrasonic cell disrupter Model KT40, Kontes, Vineland, NJ, USA) were spun down by centrifugation.
(§1) Preparation of Cytosolic Enzyme Extract. Confluent Caco-2 cells and Capan-2 cells (2 plates; 150 mm × 25 mm plate) were rinsed with saline twice. The cells were washed off with 1 mL of pH 7.4 phosphate buffer (10 mmol/L) and the enzymes were extracted through 30 gauge needle 10 times in ice-cold bath. Cell suspension was spun at 10,000 × g for 2 h at 4 °C and the supernatant was spun at 39,000 × g for 2 h at 4 °C. Protein amount was quantified with the Bio-Rad (Hercules, CA, USA) DC Protein Assay using bovine serum albumin as a standard. The protein amount was adjusted to 500 µg/mL and the hydrolysis reactions were carried out in 96-well plates (Corning). Caco-2 cells and Capan-2 cell suspensions (250 µL) were placed in triplicate wells either presence or absence of various inhibitors, the reactions were started with the addition of substrate (200 µM), and wells were incubated at 37 °C for 120 min (time points; 0, 5, 10, 30, 60, and 120 min). At each time point, aliquot sample (35 µL) was removed and added to 150 µL of acetonitrile (ACN) with 0.1% TFA to prevent the further degradation. The mixtures were filtered with a 0.45 µm filters at 1,000 × g for 10 min at 4 °C. The filtrate wasthen analyzed via reverse-phaseHPLC.
(§2) The initial rates of hydrolysis were used to obtain the apparent first-order rate constants and estimate the half-lives. The apparent first-order degradation rate constants of various floxuridine prodrugs at 37 °C were determined by plotting the logarithm of prodrug remaining as a function of time. The slopes of these plots are related to the rate constant, k, and given by:
k = 2.303 × slope (log C vs. time) (1)
The degradation half-lives were then estimated by the equation: […]
(§3) The concentrations of prodrugs and their metabolites were determined on a Waters HPLC system (Waters, Inc., Milford, MA, USA). The HPLC system consisted of two Waters pumps (model 515), a Waters autosampler (WISP model 712), and a Waters UV detector (996 photodiode array detector). The system was controlled by Waters Millennium 32 software (version 3.0.1). Samples were injected onto a Waters Xterra C18 reverse-phase column (5 µm, 4.6 × 250 mm) equipped with a guard column. The compounds were eluted using gradient method. All prodrugs were run with the solvent B gradient changing 0% to 56% at a rate of 2%/min during a 28-min run. Standard curves generated for each prodrug and their parent drugs were used for quantitation of integrated area under peaks.

human cathepsin B = biological target: T1, human cathepsin B (Homo sapiens, UniProt P07858); test: Prodrug stability with human cathepsin B; format: biochemical; conditions: pH 7.4 phosphate buffer, 37 °C, 200 µM substrate
T1 construct: cathepsin B (human liver), and cathepsin D (human liver) were obtained from Sigma Chemical Co; purchased Sigma Chemical Co (St. Louis, MO, USA); host or cells: human liver (tissue-derived)
Description: (§4) The high expression levels of cathepsins in tumors have been reported. It has been investigated if the protein levels of cathepsin B and D would associate with pathological parameters in order to assess the difference in protein levels of cathepsins as possible tumor biomarkers. Cathepsin B, one of the highest gene expressions in enzymes of Capan-2 cell, is a cysteine endopeptidase and reportedly has similar activity to carboxypeptidase and peptidyl-dipeptidase. On the other hand, cathepsin D has been reported that it preferentially hydrolyzes the peptide bond of bulky hydrophobic amino acids and the peptide bond between Phe-Phe of Bz-Arg-Gly-Phe-Phe-Pro-4MbNA [75, 76, 77]. The metabolic stability of floxuridine prodrugs was assessed using human cathepsin B and D in pH 7.4 phosphate buffer. […] However, the enzyme specificity between cathepsin B and D in prodrug activation for those two prodrugs was not observed.
(§5) Prodrug stability with Cathepsin B and D. Lyophilized enzyme powder was dissolved and adjusted to 2.5 mg/mL of pure enzyme, human cathepsin B and D. The hydrolysis reactions were immediately started by adding substrates (200 µM) in 96-well plates (Corning). The reactions were carried out at 37 °C for 120 min (time points; 0, 5, 10, 30, 60, and 120 min). At each time point, aliquot sample (35 µL) was removed and added to 150 µL of acetonitrile (ACN) with 0.1% TFA. The mixtures were filtered with a 0.45 µm filters at 1,000 × g for 10 min at 4 °C. The filtrate was then analyzed via reverse-phase HPLC.
as §2, with “The slopes of these plots are related to the rate constant, k, and given by:” left out
(§6) The concentrations of prodrugs and their metabolites were determined on a Waters HPLC system (Waters, Inc., Milford, MA, USA). […] Standard curves generated for each prodrug and their parent drugs were used for quantitation of integrated area under peaks.

human cathepsin D = biological target: T2, human cathepsin D (Homo sapiens, UniProt P07339); test: Prodrug stability with human cathepsin D; format: biochemical; conditions: pH 7.4 phosphate buffer, 37 °C, 200 µM substrate
T2 construct: cathepsin B (human liver), and cathepsin D (human liver) were obtained from Sigma Chemical Co; purchased Sigma Chemical Co (St. Louis, MO, USA); host or cells: human liver (tissue-derived)
T2 sequence (P07339 169-412 limits assumed): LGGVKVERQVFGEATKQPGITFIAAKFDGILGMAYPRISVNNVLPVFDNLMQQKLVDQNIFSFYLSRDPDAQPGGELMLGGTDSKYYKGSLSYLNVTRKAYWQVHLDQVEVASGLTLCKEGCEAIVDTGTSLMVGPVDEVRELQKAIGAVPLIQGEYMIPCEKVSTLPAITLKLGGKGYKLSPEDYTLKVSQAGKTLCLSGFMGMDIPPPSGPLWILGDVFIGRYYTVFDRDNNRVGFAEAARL
T2 sequence (P07339 65-162 limits assumed): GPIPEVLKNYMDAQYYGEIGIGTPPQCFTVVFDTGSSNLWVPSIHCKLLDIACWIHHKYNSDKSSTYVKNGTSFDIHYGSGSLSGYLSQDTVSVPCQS
Description: as §4, §5
as §2, with “The slopes of these plots are related to the rate constant, k, and given by:” left out
as §6

[1] = system: Capan-2 cell homogenates and cytosolic enzyme extracts; test: Prodrug stability in cytosolic enzyme extract versus whole cell homogenate of Capan-2 cells; format: in vitro ADME
Description: In stability studies of test compounds in cell homogenates, the location of enzymes in living cells is not considered and the inaccessible enzymes in vivo condition may be able to degrade those analytes in this in vitro setting. Therefore, the result of prodrug stabilities in cell homogenate may be different to one in vivo, where all enzymes are arranged in all specific locations. The experiments of prodrug activation concerning the location of enzymes in cells were performed at 37 °C in Capan-2 cell homogenates and in cytosolic enzyme extracts. For the comparison purpose, the same experiments were performed at 37 °C in Caco-2 cell homogenates and in cytosolic enzyme extracts. […] The difference between them was minimal (1.4- to 2.5 fold). […] In Capan-2 cells, the stabilities of 5′-O-L-phenylalanyl-L-glycylfloxuridine and 5′-O-L-phenylalanylfloxuridine were improved 7.4- and 7.3-fold, while the ones of 5′-O-L- phenylalanyl-L-tyrosylfloxuridine and 5′-O-L-glycyl-L-leucylfloxuridine were declined 3.9- and 6.0-fold, respectively.
as §1, §2, §3

Capan-2 cell lines = test: Cell proliferation (XTT) assay; format: cell-based; conditions: 4 mmol/L, 4 h drug treatment
Description: The percentage of growth inhibition for amino acid/dipeptide monoester prodrugs of floxuridine in Capan-2 cell was evaluated via 2,3-bis[2-methoxy-4-nitro-5-sulfophenyl]-2H-tetrazolium-5-carboxanilideinner salt (XTT) assays (Figure 3). The growth inhibitory effect of tested floxuridine prodrugs after 4 h drug treatment range from 0.0–91.1% at 4 h, 0.0–84.2% at 8 h, and 41.8–84.8% at 24 h in Capan-2 cell lines. […] While specific activation enzymes for 5′-O-L-leucyl-L-glycylfloxuridine and 5′-O-L-phenylalanylfloxuridine have not been identified, those enzymes may be highly localized at the plasma membrane and cytosol. Thus, the activation of those prodrugs took place immediately after translocation of prodrugs into the cells and started inhibiting tumor growth. Leucine and phenylalanine are reportedly good substrates for aminopeptidases and carboxylesterase, respectively.
Cell proliferation studies were conducted with Capan-2 cell lines. The cells were seeded into 96-well plates at […] per well and allowed to attach/grow for 24 h before drug solutions were added. The culture medium (RPMI-1640 + 10% fetal bovine serum) was removed and the cells were gently washed once with sterile pH 6.0 uptake buffer (145 mM NaCl, 0.5 mM MgCl2, 1 mM NaH2PO4, 1 mM CaCl2, 3 mM KCl, 5 mM glucose, and 5 mM MES). Floxuridine prodrugs and floxuridine were diluted in pH 6.0 uptake buffer to 4 mmol/L using no drug as a 100% viability control. The wash buffer was removed and 25 µL drug solution per well were added and incubated at 37 °C for 4 h in the cell incubator. After this time, the drug solutions were removed and the cells were again gently washed twice with sterile uptake buffer. RPMI-1640 was then added to each well after washing. The cells were allowed to recover for 4 h, 8 h, or 24 h before evaluating cell viability via 2,3-bis[2-methoxy-4-nitro-5-sulfophenyl]-2H-tetrazolium-5-carboxanilide inner salt (XTT) assays. […] Absorbance readings at 450 nm were recorded.

[2] = design: method as in PMID 18719516; conditions: pH 7.4 phosphate buffer; mean ± s.d.; ref [50]; cited from earlier work

Compound: N[C@@H](Cc1ccccc1)C(=O)NCC(=O)OC[C@H]1O[C@@H](n2cc(F)c(=O)[nH]c2=O)C[C@@H]1O [5'-O-L-phenylalanyl-L-glycyl-floxuridine]
- Half Life, DPP 3 Inhibitor (Capan-2 cell homogenate; Capan-2 cell homogenate with 1,10-phenanthroline, pH 7.4): 30.1 ± 10.0 min
- Half Life, TPP 2 Inhibitor (Capan-2 cell homogenate; Capan-2 cell homogenate with H-Ala-Ala-Phe-CMK CF3CO2H, pH 7.4): 19.6 ± 0.4 min
- Half Life, Cathepsin D Inhibitor (Capan-2 cell homogenate; Capan-2 cell homogenate with pepstatin A, pH 7.4): 10.2 ± 3.0 min
- Half Life, Aminopeptidase Inhibitor (Capan-2 cell homogenate; Capan-2 cell homogenate with puromycin, pH 7.4): 25.7 ± 0.4 min
- Half Life, Capan-2 Cell Homogenate (Capan-2 cell homogenate; no inhibitor, pH 7.4 phosphate buffer, 200 µM substrate, mean ± s.d.): 4.3 ± 0.9 min
- Stability (degradation) against cathepsin B compared with absence of enzyme (human cathepsin B): significant degradation
- Stability (degradation) against cathepsin D compared with absence of enzyme (human cathepsin D): significant degradation
- Hydrolysis products detected in cell homogenates and cytosolic enzyme extracts [1]: only floxuridine was detected
- Fold longer half life (stability improved) in cytosolic extract than in Capan-2 cell homogenate ([1]; 37 °C, pH 7.4 phosphate buffer): 7.4 fold
- Growth inhibition of cancer cells at 4 h and 8 h (Capan-2 cell lines): did not exhibit the growth inhibition of cancer cells
- Half Life, Phosphate Buffer pH 7.4 [2]: 132.1 ± 10.2 min
